{"source": "paper PMC10439952", "about": "“JT002, a small molecule inhibitor of the NLRP3 inflammasome for the treatment of autoinflammatory disorders” (Scientific Reports, 2023)", "key": {"NLRP3 inflammasome [1]": {"molecular_target": "NLRP3 inflammasome (Homo sapiens, UniProt Q96P20)", "sequence (Q96P20 whole entry)": "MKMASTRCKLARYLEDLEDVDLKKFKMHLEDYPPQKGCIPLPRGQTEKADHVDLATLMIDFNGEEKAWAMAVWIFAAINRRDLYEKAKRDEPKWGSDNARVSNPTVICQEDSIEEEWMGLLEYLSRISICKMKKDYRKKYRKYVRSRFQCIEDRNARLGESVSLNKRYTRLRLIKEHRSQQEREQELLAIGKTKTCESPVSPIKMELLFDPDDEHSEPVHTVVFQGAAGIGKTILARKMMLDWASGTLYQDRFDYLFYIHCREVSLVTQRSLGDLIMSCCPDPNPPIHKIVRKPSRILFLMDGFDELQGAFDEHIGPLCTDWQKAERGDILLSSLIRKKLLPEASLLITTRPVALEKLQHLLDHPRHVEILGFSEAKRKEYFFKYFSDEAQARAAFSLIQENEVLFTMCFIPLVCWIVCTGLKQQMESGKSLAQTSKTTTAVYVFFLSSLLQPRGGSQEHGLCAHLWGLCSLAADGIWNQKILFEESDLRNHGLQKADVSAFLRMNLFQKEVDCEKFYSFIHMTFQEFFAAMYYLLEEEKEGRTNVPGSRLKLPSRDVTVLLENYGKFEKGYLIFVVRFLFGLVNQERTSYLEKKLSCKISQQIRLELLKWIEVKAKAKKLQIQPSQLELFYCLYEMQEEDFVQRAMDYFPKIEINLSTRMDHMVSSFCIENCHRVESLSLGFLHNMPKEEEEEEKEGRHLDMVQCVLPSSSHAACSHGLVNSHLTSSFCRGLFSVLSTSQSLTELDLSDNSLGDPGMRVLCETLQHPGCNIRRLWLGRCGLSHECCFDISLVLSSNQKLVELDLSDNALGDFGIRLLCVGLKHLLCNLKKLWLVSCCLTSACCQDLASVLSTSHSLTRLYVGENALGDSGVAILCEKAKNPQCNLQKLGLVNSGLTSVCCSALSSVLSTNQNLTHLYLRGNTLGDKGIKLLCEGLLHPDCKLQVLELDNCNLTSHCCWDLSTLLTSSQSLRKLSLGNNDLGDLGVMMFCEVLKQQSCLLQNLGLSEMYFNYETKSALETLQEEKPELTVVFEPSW", "assay": "Inhibition of IL-1β, IL-18 and IL-1α production in human PBMCs stimulated by LPS + ATP", "assay_type": "cell-based", "set-up": "host or cells: human PBMCs; fresh heparinised human whole blood from healthy volunteers", "conditions": "Human PBMC", "method": "Inflammasome activation and whole blood assays were essentially carried out as described earlier. Details can be found in the supplementary information section accompanying this publication. A protocol for blood draws from healthy volunteers and use of the blood in preclinical assays was approved by Western Institutional Review Board, Inc (Puyallup, WA, USA). Informed consent was obtained from each donor prior to the first blood draw.\nCell viability was determined by addition of an equal volume of CellTiter-Glo® 2.0 reagent (Promega) to the remaining cells/supernatant in each well. Intracellular Caspase-1 activity was measured using the Caspase-Glo® assay (Promega) according to the manufacturer’s instructions. The biochemical capsase-1 assay was conducted at Reaction Biology Corporation (Malvern, USA). Human IL-1β, IL-1α, and TNFα and mouse IL-1β were measured in cell culture supernatants using homogeneous time resolved fluorescence assay kits (HTRF, Cisbio, Codolet, France). Human IL-18 was measured in cell culture supernatants using an ELISA kit (R&D Systems, Minneapolis, MN, USA). Plasma IL-1β concentrations were determined by Quantikine® ELISA (R&D Systems, Minneapolis, MN).\n4H). MS: m/z 433.1 (M+H+).\nInflammasome activation.PBMCs (iXCells Biotechnologies, San Diego, USA) were thawed the day before the assay and seeded in complete medium (RPMI 1640 medium with GlutaMAX, supplemented with an additional 2.5 g/L D-glucose, 10% Fet al Bovine Serum, 100 mM Sodium Pyruvate, 1% Penicillin/Streptomycin, 10 mM HEPES and 0.05 mM β -mercaptoethanol) in polystyrene V-bottom 96-well plates at 5x10^4 cells per well and incubated overnight at 37°C with 5% CO 2. […]\nflagellin, prepared in Opt iMEM and combined with Lipofectamine 2000. […] After priming Nlrp3 -/- mBMDMs with 100 ng/mL of LPS for 3- 5 h, cells were exposed to 100 ng/mL L18- MDP and incubated overnight.At the end of the incubation period of the assays above, plates were briefly centri fuged and hal f of the cell culture supern atant remo ved and either analysed i mmediately or stored at - 80°C for subs equent cytokine […]"}, "NLRP3 inflammasome [2]": {"molecular_target": "NLRP3 inflammasome (Mus musculus, UniProt Q8R4B8)", "sequence (Q8R4B8 whole entry)": "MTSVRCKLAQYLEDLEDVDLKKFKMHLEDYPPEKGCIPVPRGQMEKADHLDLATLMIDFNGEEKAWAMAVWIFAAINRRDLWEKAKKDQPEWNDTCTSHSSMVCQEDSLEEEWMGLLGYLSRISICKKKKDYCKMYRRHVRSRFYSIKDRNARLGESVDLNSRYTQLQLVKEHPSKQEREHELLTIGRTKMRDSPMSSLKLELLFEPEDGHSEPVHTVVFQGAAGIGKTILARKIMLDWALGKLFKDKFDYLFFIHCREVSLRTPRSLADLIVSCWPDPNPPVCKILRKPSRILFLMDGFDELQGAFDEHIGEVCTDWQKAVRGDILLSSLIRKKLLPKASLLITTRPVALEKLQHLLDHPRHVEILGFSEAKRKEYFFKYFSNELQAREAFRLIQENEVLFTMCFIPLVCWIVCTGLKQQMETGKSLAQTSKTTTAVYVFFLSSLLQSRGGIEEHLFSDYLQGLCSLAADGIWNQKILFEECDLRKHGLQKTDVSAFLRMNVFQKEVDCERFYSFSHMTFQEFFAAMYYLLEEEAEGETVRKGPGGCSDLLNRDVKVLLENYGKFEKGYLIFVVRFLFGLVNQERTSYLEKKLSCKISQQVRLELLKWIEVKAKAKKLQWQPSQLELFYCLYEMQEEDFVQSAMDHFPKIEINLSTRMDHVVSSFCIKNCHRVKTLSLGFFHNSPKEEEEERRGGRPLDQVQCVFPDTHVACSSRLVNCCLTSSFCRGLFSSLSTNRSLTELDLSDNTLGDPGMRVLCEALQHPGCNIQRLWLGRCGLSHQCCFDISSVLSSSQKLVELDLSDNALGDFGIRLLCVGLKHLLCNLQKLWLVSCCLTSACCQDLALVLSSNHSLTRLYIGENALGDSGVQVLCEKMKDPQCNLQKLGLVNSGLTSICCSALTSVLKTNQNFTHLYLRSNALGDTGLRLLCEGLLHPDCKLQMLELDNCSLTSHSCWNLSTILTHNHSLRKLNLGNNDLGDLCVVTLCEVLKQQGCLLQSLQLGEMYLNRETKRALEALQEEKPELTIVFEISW", "assay": "In vivo target engagement: ex vivo LPS + ATP stimulated IL-1β production in blood of orally dosed mice", "conditions": "single oral dose 25 mg/kg", "method": "In vivo pharmacodynamics (PD) were evaluated in mice for determination of target engagement as this species is routinely used for assessment of preclinical efficacy. Treatment of fresh, whole blood with LPS plus ATP results in the NLRP3-dependent release of IL-1β, thus providing a robust method for tracking target engagement of NLRP3 inflammasome inhibitors in the circulation after oral dose administration[36],[47]. In vivo target engagement using ex vivo stimulation of blood was evaluated in mice at various times after oral dosing of JT002. For each time point tested, one group of mice received a single oral dose of 25 mg/kg JT002 (n = 8/group) and another group received the vehicle control (n = 8/group). At the time of harvest, blood was collected from each animal and an aliquot removed and processed to plasma for determination of JT002 concentrations. The remaining blood was stimulated ex vivo with LPS plus ATP followed by analysis of IL-1β concentrations (Fig. 3A). […] Consistent with these findings, plasma concentrations of JT002 decreased over time, with mean concentrations of ≥ 4.0 µM through 8 h and a mean concentration of 6 nM at the 24-h sampling (Fig. 3C,D). […]"}}, "note": "Entries after “also recorded” stand apart in the source; their conditions may differ. Read-outs that look alike come from different tables or passages of the source."}
{"compound": "CO[C@@H]1COc2c(S(=O)(=O)NC(=O)Nc3c4c(cc5c3CCC5)CCC4)cnn2C1", "note": "[JT002]", "values": [{"measurement": "IC50", "setting": "NLRP3 inflammasome [1]; read-out: Geo Av IC50, IL-1α", "result": 3, "unit": "nM"}, {"measurement": "IC50", "setting": "NLRP3 inflammasome [1]; read-out: Geo Av IC50, IL-1β", "result": 4, "unit": "nM"}, {"measurement": "IC50", "setting": "NLRP3 inflammasome [1]; read-out: Geo Av IC50, IL-18", "result": 4, "unit": "nM"}, {"measurement": "inhibition at 25 mg/kg", "setting": "NLRP3 inflammasome [2]; mouse, 4- and 8-h post-dosing", "result": "≥ 97", "unit": "%"}, {"measurement": "inhibition of ex vivo stimulated IL-1β production", "setting": "NLRP3 inflammasome [2]; 24-h post-dosing, 25 mg/kg", "result": "no significant inhibition; also recorded: lack of inhibition"}]}
